From patent publication US20240109903A1, “SUBSTITUTED HETEROCYCLES FOR TREATING CANCER” (Northwestern University, priority 2022, published 2024)

Legend:
HT29 = experiment: NCI 60 five-dose screen HT29; format: cell-based; settings: Homo sapiens
NCI/ADR-RES = experiment: NCI 60 five-dose screen NCI/ADR-RES; format: cell-based; settings: Homo sapiens
SF-295 = experiment: NCI 60 five-dose screen SF-295; format: cell-based; settings: Homo sapiens
full NCI 60 cell panel = experiment: NCI 60 Cell One-dose screen; format: cell-based, human; settings: single high dose 10^−5 M, NCI 60 panel
In short: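 Single dose of 10^−5 M across the full NCI-60 human tumour cell panel. Value is percent growth relative to no-drug control and to time-zero cell number: 0–100 means growth inhibition, 0 means no net growth, below 0 means lethality (−100 = all cells dead).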

U251 = experiment: NCI 60 five-dose screen U251; format: cell-based; settings: Homo sapiens
HCC-2998 = experiment: NCI 60 five-dose screen HCC-2998; format: cell-based; settings: Homo sapiens
COLO 205 = experiment: NCI 60 five-dose screen COLO 205; format: cell-based; settings: Homo sapiens
SR = experiment: NCI 60 five-dose screen SR; format: cell-based, human
M14 = experiment: NCI 60 five-dose screen M14; format: cell-based; settings: Homo sapiens
HOP-92 = experiment: NCI 60 five-dose screen HOP-92; format: cell-based; settings: Homo sapiens
CAKI-1 = experiment: NCI 60 five-dose screen CAKI-1; format: cell-based; settings: Homo sapiens
UACC-257 = experiment: NCI 60 five-dose screen UACC-257; format: cell-based; settings: Homo sapiens
KM12 = experiment: NCI 60 five-dose screen KM12; format: cell-based; settings: Homo sapiens
ACHN = experiment: NCI 60 five-dose screen ACHN; format: cell-based; settings: Homo sapiens
OVCAR-8 = experiment: NCI 60 five-dose screen OVCAR-8; format: cell-based; settings: Homo sapiens
A498 = experiment: NCI 60 five-dose screen A498; format: cell-based; settings: Homo sapiens
MCF7 = experiment: NCI 60 five-dose screen MCF7; format: cell-based; settings: Homo sapiens
IGROV1 = experiment: NCI 60 five-dose screen IGROV1; format: cell-based; settings: Homo sapiens
UACC-62 = experiment: NCI 60 five-dose screen UACC-62; format: cell-based; settings: Homo sapiens
HS 578T = experiment: NCI 60 five-dose screen HS 578T; format: cell-based; settings: Homo sapiens
HCT-116 = experiment: NCI 60 five-dose screen HCT-116; format: cell-based; settings: Homo sapiens
NCI-H522 = experiment: NCI 60 five-dose screen NCI-H522; format: cell-based; settings: Homo sapiens
CCRF-CEM = experiment: NCI 60 five-dose screen CCRF-CEM; format: cell-based; settings: Homo sapiens
NCI-H322M = experiment: NCI 60 five-dose screen NCI-H322M; format: cell-based; settings: Homo sapiens
[1] = read-out: LC50 (the source's name) (converted)
[2] = read-out: LC50 (the source's name)

SMILES: Fc1ccc(N2CC(Cn3c(C(F)(F)F)cc4c(Cl)ncnc43)C2)c(F)c1 [NUCC-0226695]
- GI50 (HT29; HT-29): 3.47 µM
- IC50 (HT29; HT-29): 4.27 µM
- IC (TGI) (HT29; HT-29): 16.2 µM
- CC50 (HT29; HT-29, read-out: LC50 (the source's name) (converted)): 97.7 µM
- GI50 (NCI/ADR-RES): 10.2 µM
- IC50 (NCI/ADR-RES): 18.2 µM
- IC (TGI) (NCI/ADR-RES): 26.3 µM
- CC50 (NCI/ADR-RES; [1]): 69.2 µM
- GI50 (SF-295): 11.5 µM
- IC50 (SF-295): 20 µM
- IC (TGI) (SF-295): 24.5 µM
- CC50 (SF-295; [1]): 52.5 µM
- growth inhibition in the One-Dose Screen (full NCI 60 cell panel): significant growth inhibition
- GI50 (U251; U-251): 1.91 µM
- IC50 (U251; U-251): 3.24 µM
- IC (TGI) (U251; U-251): 3.8 µM
- CC50 (U251; U-251, read-out: LC50 (the source's name) (converted)): 7.76 µM
- GI50 (HCC-2998): 1.95 µM
- IC50 (HCC-2998): 3.47 µM
- IC (TGI) (HCC-2998): 3.47 µM
- CC50 (HCC-2998; [1]): 6.17 µM
- GI50 (COLO 205): 15.1 µM
- IC50 (COLO 205): 26.9 µM
- IC (TGI) (COLO 205): 32.4 µM
- CC50 (COLO 205; [1]): 70.8 µM
- TGI (SR): 5.16 −log[M]
- GI50 (SR; Homo sapiens): 2.14 µM
- IC50 (SR; Homo sapiens): 3.39 µM
- CC50 (SR; Homo sapiens, read-out: LC50 (the source's name)): ≥ 100 µM
- GI50 (M14): 2.95 µM
- IC50 (M14): 4.37 µM
- IC (TGI) (M14): 10.7 µM
- CC50 (M14; [1]): 45.7 µM
- GI50 (HOP-92): 11 µM
- IC50 (HOP-92): 26.9 µM
- IC (TGI) (HOP-92): 25.7 µM
- CC50 (HOP-92; [1]): 58.9 µM
- GI50 (CAKI-1): 11.7 µM
- IC50 (CAKI-1): 20.4 µM
- IC (TGI) (CAKI-1): 24 µM
- CC50 (CAKI-1; [1]): 50.1 µM
- GI50 (UACC-257): 3.09 µM
- IC50 (UACC-257): 6.46 µM
- IC (TGI) (UACC-257): 12 µM
- CC50 (UACC-257; [1]): 42.7 µM
- GI50 (KM12): 16.2 µM
- IC50 (KM12): 28.2 µM
- IC (TGI) (KM12): 30.9 µM
- CC50 (KM12; [1]): 60.3 µM
- GI50 (ACHN): 12.9 µM
- IC50 (ACHN): 21.9 µM
- IC (TGI) (ACHN): 27.5 µM
- CC50 (ACHN; [1]): 58.9 µM
- GI50 (OVCAR-8): 2.14 µM
- IC50 (OVCAR-8): 3.47 µM
- IC (TGI) (OVCAR-8): 5.01 µM
- CC50 (OVCAR-8; [1]): 19.1 µM
- GI50 (A498): 23.4 µM
- IC50 (A498): 100 µM
- IC (TGI) (A498): 74.1 µM
- CC50 (A498; [1]): ≥ 100 µM
- GI50 (MCF7): 8.13 µM
- IC50 (MCF7): 12.9 µM
- IC (TGI) (MCF7): 23.4 µM
- CC50 (MCF7; [1]): 60.3 µM
- GI50 (IGROV1; IGROV-1): 1.86 µM
- IC50 (IGROV1; IGROV-1): 3.24 µM
- IC (TGI) (IGROV1; IGROV-1): 3.55 µM
- CC50 (IGROV1; IGROV-1, read-out: LC50 (the source's name) (converted)): 6.76 µM
- GI50 (UACC-62): 3.16 µM
- IC50 (UACC-62): 5.62 µM
- IC (TGI) (UACC-62): 12.9 µM
- CC50 (UACC-62; [1]): 36.3 µM
- GI50 (HS 578T): 7.08 µM
- IC50 (HS 578T): 77.6 µM
- IC (TGI) (HS 578T): 41.7 µM
- CC50 (HS 578T; [2]): ≥ 100 µM
- GI50 (HCT-116): 1.91 µM
- IC50 (HCT-116): 3.16 µM
- IC (TGI) (HCT-116): 3.89 µM
- CC50 (HCT-116; [1]): 7.94 µM
- GI50 (NCI-H522): 1.82 µM
- IC50 (NCI-H522): 3.47 µM
- IC (TGI) (NCI-H522): 3.98 µM
- CC50 (NCI-H522; [1]): 8.71 µM
- GI50 (CCRF-CEM): 10.5 µM
- IC50 (CCRF-CEM): 41.7 µM
- IC (TGI) (CCRF-CEM): 100 µM
- CC50 (CCRF-CEM; [2]): ≥ 100 µM
- GI50 (NCI-H322M): 10.7 µM
- IC50 (NCI-H322M): 20.4 µM
- IC (TGI) (NCI-H322M): 22.9 µM
- CC50 (NCI-H322M; [1]): 47.9 µM
